Values after ≈ are worked out from the molar mass of the structure shown.
Key:
Ferritin = assay: Labile iron inhibition test (iron release from ferritin by superoxide); assay type: biochemical
Description: The tested mixture was irradiated with a fluorescent lamp at room temperature for 90 min. Labile iron was measured, as noted previously.

[1] = Ferric-reducing/antioxidant power (FRAP) test; conditions: tested 0.1 to 5 mg/mL
Description: The FRAP reagent proportions consisted of 1:1:10 (v/v/v) of TPTZ 10 mM solution in 40 mM HCl, FeCl3 20 mM, and acetate buffer pH 3.6, 0.3 M. Then, 1 mL of the tested sample was mixed with 2 mL of freshly prepared FRAP reagent. The mixtures were incubated for 30 min at 37 °C. The absorbance was conducted using a Varian CARY 50 Scan UV–VIS Spectrophotometer with a Cary 50 Microplate Reader Accessory (Varian, Inc., Walnut Creek, CA, USA), at 593 nm. Deionized water was used as a blank. FeSO4 was used for the calibration curve. The values of FRAP were expressed as µmol of Fe (II).

[2] = DPPH free radical-scavenging test; conditions: tested 0.1 to 5 mg/mL
Description: They were determined to be effective against 1,1-diphenyl-2, picrylhydrazyl radicals. The results of the study were compared with those of a previously reported method. […] The absorbance was conducted using a Varian CARY 50 Scan UV–VIS Spectrophotometer with a Cary 50 Microplate Reader Accessory (Varian, Inc., Walnut Creek, CA, USA).

[3] = Nitric oxide radical (NO) scavenging test (Griess reaction)
Description: In brief, 3 mL of the reaction mixture (2 mL of 10 mM sodium nitroprusside, 0.5 mL phosphate buffer saline, and 0.5 of tested samples). The mixture was incubated for 150 min at 25 °C. Then 0.5 mL of the mixture was mixed with 1 mL of (sulfanilic acid reagent: 0.33% in 20% glacial acetic acid). After 5 min, 1 mL of naphthyl ethylene diamine dihydrochloride 0.1% was added. After 30 min at room temperature, the absorbance was conducted using a Varian CARY 50 Scan UV–VIS Spectrophotometer with a Cary 50 Microplate Reader Accessory (Varian, Inc., Walnut Creek, CA, USA) at 540 nm. The nitrite percentage was determined by considering Equation 1 described above.

[4] = Total antioxidant activity (TAC, phosphomolybdate); conditions: tested 0.1-5 mg/mL
Description: In brief, 0.3 mL of a reagent composed of sodium phosphate 28 mM, sulphuric acid 0.6 M, and ammonium molybdate 4 mM were added to 0.1 mL tested samples and incubated at 95 °C for 90 min. After cooling, the mixture was measured at 695 nm using a Varian CARY 50 Scan UV–VIS Spectrophotometer with a Cary 50 Microplate Reader Accessory (Varian, Inc., Walnut Creek, CA, USA). A higher antioxidant capacity is correlated with a higher absorbance value.

[5] = test system: Bovine Serum Albumin (BSA)
Description: Bovine Serum Albumin (BSA) was oxidized by AAPH using a method outlined earlier [18]. […] The control sample was without AAPH.
Then the mixture was loaded and separated using SDS-PAGE 10% after reduction conditions for 5 min, at 100 °C. The free stained gels’ images were taken with a ChemiDoc MV gel documentation system (Bio-Rad, Hercules, CA, USA). The band intensity determined the protein damage amount for each band using Image Lab 4.1 Software version 6.1.0 (Bio-Rad, Hercules, CA, USA).

Structure (SMILES): O=C(O)c1cc(O)c(O)c(O)c1 [Gallic acid, gallic acid]
- percent inhibition of iron release from ferritin (Ferritin; at 10 μg): 50.68 ± 0.18%
- percent inhibition of iron release from ferritin (Ferritin; at 50 μg): 59.22 ± 0.81%
- percent inhibition of iron release from ferritin (Ferritin; at 100 μg): 68.55 ± 0.38%
- IC50, Labile Iron (Ferritin; iron release from ferritin by superoxide): 4.86 ± 0.23 µg/mL (≈ 0.0286 mM)

Structure (SMILES): C[C@@H]1O[C@@H](OC[C@H]2O[C@@H](Oc3c(-c4ccc(O)c(O)c4)oc4cc(O)cc(O)c4c3=O)[C@H](O)[C@@H](O)[C@@H]2O)[C@H](O)[C@H](O)[C@H]1O [Rutin]
- Free Radical Inhibition Activity IC50, FRAP [1]: 533 ± 22.85 µg/mL
- percent inhibition of iron release from ferritin (Ferritin; at 10 μg): 85.32 ± 0.56%
- percent inhibition of iron release from ferritin (Ferritin; at 50 μg): 90.30 ± 0.01%
- percent inhibition of iron release from ferritin (Ferritin; at 100 μg): 96.65 ± 0.01%

Structure (SMILES): Cc1c(C)c2c(c(C)c1O)CCC(C)(C(=O)O)O2 (centres unmarked) [Trolox]
- percent inhibition of iron release from ferritin (Ferritin; at 10 μg): 39.33 ± 0.54%
- percent inhibition of iron release from ferritin (Ferritin; at 50 μg): 84.79 ± 3.00%
- percent inhibition of iron release from ferritin (Ferritin; at 100 μg): 87.87 ± 1.87%

Structure (SMILES): O=C1O[C@H]([C@@H](O)CO)C(O)=C1O [VC, vitamin C]
- Free Radical Inhibition Activity IC50, DPPH [2]: 880 ± 12.89 µg/mL
- scavenging capacity for NO ([3]; 0.5 mg/mL): 40.92%
- scavenging capacity for NO ([3]; 1 mg/mL): 29.57%
- scavenging capacity for NO ([3]; 3 mg/mL): 55.12%
- scavenging capacity for NO ([3]; 5 mg/mL): 56.55%
- scavenging capacity for NO ([3]; starting value (lowest concentration)): 59.10%
- IC50, Nitric oxide ([3]; tested 0.1 to 5 mg/mL): 2710 ± 65.98 µg/mL (≈ 15.4 mM)
- IC50, Total antioxidant Capacity [4]: 3005.29 ± 427.80 µg/mL (≈ 17.1 mM)
- IC50 [5]: < 100 µg/mL

— publication PMC9460506, “Polyphenol-Rich Date Palm Fruit Seed (Phoenix Dactylifera L.) Extract Inhibits Labile Iron, Enzyme, and Cancer Cell Activities, and DNA and Protein Damage” (Nutrients, 2022)
